Assay results as given in US10682421B2, “Nanoparticle composition for use in targeting cancer stem cells and method for treatment of cancer” (City University of Hong Kong, priority 2015, dated 2020).

System: LCSCs
Assay: In vitro thermotherapy and chemotherapy under AMF or water bath, MTT assay
Format: cell-based, human
Details: 37° C. under AMF for 30 min, 100 mg/mL for 1 h
Description: The AMF was generated by a 5 cm diameter 8-turn induction coil powered by a 3 kW alternating magnetic field generator. LCSCs were seeded in the 6-well plate at a density of 5×10^4 cells/mL. After 24 h incubation, cells were separately treated with 100 mg/mL CD20-Fe3O4@SiNPs, CD20-HSPI&Fe3O4@SiNPs, Fe3O4@SiNPs, HSPI&Fe3O4@SiNPs, SiNPs, and HSPI for 1 h. Cells without treatment were used as control. Following two washes with PBS, cells were placed inside the coil and heated to a defined temperature (between 37 and 50° C.) for 30 min. While frequency was kept constant at 350 kHz and temperature was monitored by using a thermometer immersed in a test tube containing 2 mL of solution. The traditional heating method (water bath heater) was used to compare with AMF heating. Cell survival was assessed by MTT assay.

## CO[C@H]1/C=C\C=C(/C)C(=O)NC2=CC(=O)C(NCCN(C)C)=C(C[C@@H](C)C[C@H](OC)[C@H](O)[C@@H](C)/C=C(\C)[C@@H]1OC(N)=O)C2=O [HSPI, 17-(Dimethylaminoethylamino)-17-demethoxygeldanamycin]
  cell survival rate: 77%
